Numbered stars: 1 amine (or outer) side, 2 acyl side, 3 side chain; on linkers, the order of the positions; unused ones are H or OH. Bridge positions count the residues as written; N and C are the ends. Square brackets hold non-standard residues; d marks the D form. Peptide text beside a SMILES is read from it. * marks the point of attachment. hPhe(3,5-F2-4-CF3) = N[C@@H](CCc1cc(F)c(C(F)(F)F)c(F)c1)C(=O)O; hPhe(3-Cl-4-CF3) = N[C@@H](CCc1ccc(C(F)(F)F)c(Cl)c1)C(=O)O; NEtPhe(4-CF3) = CCN[C@@H](Cc1ccc(C(F)(F)F)cc1)C(=O)O; 3Oxa8azabicyclo(3.2.1)octane = C1CC2COCC1N2*; NMedβ3hAla = C[C@H](CC(=O)[*:2])N(C)[*:1]; NMeGly(cPent) = CN[C@H](C(=O)O)C1CCCC1; X26 = CC(C)=CC[C@H](N[*:1])C(=O)[*:2]; NMeCha = CN[C@@H](CC1CCCCC1)C(=O)O; Hyp = O=C(O)[C@@H]1C[C@@H](O)CN1; NMeChg = CN[C@H](C(=O)O)C1CCCCC1; NMeI = CC[C@H](C)[C@H](NC)C(=O)O; NMeD = CN[C@@H](CC(=O)O)C(=O)O; AllylGly = C=CC[C@H](N)C(=O)O; CH2CONHtBu = CC(C)(C)NC(=O)C*; NMeL = CN[C@@H](CC(C)C)C(=O)O; NMeNle = CCCC[C@H](NC)C(=O)O; NMeV = CN[C@H](C(=O)O)C(C)C; NMeS = CN[C@@H](CO)C(=O)O; NMeA = CN[C@@H](C)C(=O)O; Piperidide = C1CCN(*)CC1; Ac5c = NC1(C(=O)O)CCCC1; Aze = O=C(O)[C@@H]1CCN1; Ac4c = NC1(C(=O)O)CCC1; Sar = CNCC(=O)O
Columns and labels:
[1] = biological target: protein-protein interaction between Kras and SOS1 (biotin-tagged human Kras loaded with GDP, His-tagged human SOS1) (Homo sapiens (Human), UniProt P01116, G12D); experiment: Protein-protein interaction inhibition between Kras and SOS1 (KrasG12D-SOS PPI) using AlphaScreen; format: biochemical; details: AlphaScreen; biotin-tagged human Kras loaded with GDP, His-tagged human SOS1; read-out: KRAS G12D-SOS PPI IC50;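 further: kras produced in E. coli, Ni-coupled donor beads and streptavidin acceptor beads, excitation 680 nm with emission detected at 520–620 nm via singlet oxygen transfer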
[2] = test system: Human pancreatic cancer cell line AsPC-1 (G12D mutation Kras); experiment: AsPC-1 cell growth inhibition (AsPC-1 CGI); format: cell-based; details: read-out: AsPC-1 cell growth inhibition, 50% growth inhibitory concentration (IC50 value); 96 hours, CellTiter-Glo, values classified in ranges
Experimental: Test compounds were serially dilated with dimethyl sulfoxide, and 200 nL was then dispensed to a U-bottom 96-well plate using Labcyte Echo. […] The cell suspension was dispensed to a. plate containing a test compound at 100 μL per well and incubated at 37° C. in a 5% carbon dioxide gas incubator. 96 hours later, 80 μL of CellTiter-Glo (Promega) was added to each well and fluorescence was measured.

CC[C@H](C)[C@@H]1NC(=O)[C@H](CC(C)C)N(C)C(=O)C[C@@H](C(=O)N2C3CCC2COC3)N(C)C(=O)[C@H](C2CCCC2)N(C)C(=O)C2(CCCC2)NC(=O)[C@@H]2CCCN2C(=O)[C@H](CCc2ccc(C(F)(F)F)c(Cl)c2)NC(=O)CN(C)C(=O)[C@H](C2CCCC2)N(C)C(=O)[C@@H]2CCN2C(=O)[C@H](C)N(C)C1=O [Compound 721] ([NMeL]I[NMeA][Aze][NMeGly(cPent)][Sar][hPhe(3-Cl-4-CF3)]P[Ac5c][NMeGly(cPent)][NMeD]-{3Oxa8azabicyclo(3.2.1)octane}; lactam N-11)
IC50 [1]: 1.5 nM
IC50 [2]: ≤ 20 nM

CC[C@H](C)[C@@H]1NC(=O)[C@H](CC(C)C)N(C)C(=O)C[C@@H](C(=O)N2CCCCC2)N(C)C(=O)[C@H](C2CCCCC2)N(C)C(=O)C2(CCCC2)NC(=O)[C@H](COCC(=O)NC(C)(C)C)N(C)C(=O)[C@H](CCc2ccc(C(F)(F)F)c(Cl)c2)NC(=O)CN(C)C(=O)[C@H](CC2CCCCC2)N(C)C(=O)CN(C)C(=O)CN(C)C1=O [Compound 727] ([NMeL]I[Sar][Sar][NMeCha][Sar][hPhe(3-Cl-4-CF3)][NMeS](CH2CONHtBu)[Ac5c][NMeChg][NMeD]-Piperidide; lactam N-11)
IC50 [1]: 6.9 nM
IC50 [2]: > 500 nM

CC(C)=CC[C@@H]1NC(=O)[C@H](CC(C)C)N(C)C(=O)C[C@@H](C(=O)N2CCCCC2)N(C)C(=O)[C@H](C(C)C)N(C)C(=O)C2(CCCC2)NC(=O)[C@@H]2CCCN2C(=O)[C@H](CCc2ccc(C(F)(F)F)c(Cl)c2)NC(=O)CN(C)C(=O)[C@H](CC2CCCCC2)N(C)C(=O)[C@@H]2CCN2C(=O)[C@H](C)N(C)C1=O [Compound 729] ([NMeL][X26][NMeA][Aze][NMeCha][Sar][hPhe(3-Cl-4-CF3)]P[Ac5c][NMeV][NMeD]-Piperidide; lactam N-11)
IC50 [1]: 43 nM
IC50 [2]: > 500 nM

CCCC[C@H]1C(=O)NC2(CCCC2)C(=O)N(C)[C@@H](C2CCCCC2)C(=O)N(C)[C@H](C(=O)N2CCCCC2)CC(=O)N(C)[C@@H](CC(C)C)C(=O)N[C@@H]([C@@H](C)CC)C(=O)N(C)CC(=O)N(C)CC(=O)N(C)[C@@H](CC2CCCCC2)C(=O)N(C)CC(=O)N[C@@H](CCc2ccc(C(F)(F)F)c(Cl)c2)C(=O)N1C [Compound 730] ([NMeL]I[Sar][Sar][NMeCha][Sar][hPhe(3-Cl-4-CF3)][NMeNle][Ac5c][NMeChg][NMeD]-Piperidide; lactam N-11)
IC50 [1]: 12 nM
IC50 [2]: > 500 nM

CCO[C@@H]1C[C@H]2C(=O)NC3(CCC3)C(=O)N(C)[C@@H]([C@@H](C)CC)C(=O)N(C)[C@H](C)CC(=O)N(C)[C@@H](CC(C)C)C(=O)N[C@@H]([C@@H](C)CC)C(=O)N(C)[C@@H](C)C(=O)N3CC[C@H]3C(=O)N(CC)[C@@H](Cc3ccc(C(F)(F)F)cc3)C(=O)N(C)CC(=O)N[C@@H](CCc3cc(F)c(C(F)(F)F)c(F)c3)C(=O)N2C1 [Compound 731] (cyclo([Ac4c][NMeI][NMedβ3hAla][NMeL]I[NMeA][Aze][NEtPhe(4-CF3)][Sar][hPhe(3,5-F2-4-CF3)][Hyp](Et)))
IC50 [1]: 3.5 nM
IC50 [2]: ≤ 20 nM

CC[C@H](C)[C@@H]1NC(=O)[C@H](CC(C)C)N(C)C(=O)C[C@@H](C(=O)N2CCCCC2)N(C)C(=O)[C@H](C(C)C)N(C)C(=O)[C@H](C(C)C)NC(=O)[C@@H]2CCCN2C(=O)[C@H](CCc2ccc(C(F)(F)F)c(Cl)c2)NC(=O)CN(C)C(=O)[C@H](CC2CCCCC2)N(C)C(=O)[C@@H]2CCN2C(=O)[C@H](C)N(C)C1=O [Compound 741] ([NMeL]I[NMeA][Aze][NMeCha][Sar][hPhe(3-Cl-4-CF3)]PV[NMeV][NMeD]-Piperidide; lactam N-11)
IC50 [1]: 86 nM
IC50 [2]: > 500 nM

C=CC[C@@H]1NC(=O)[C@H](CC(C)C)N(C)C(=O)C[C@@H](C(=O)N2CCCCC2)N(C)C(=O)[C@H](C(C)C)N(C)C(=O)C2(CCCC2)NC(=O)[C@@H]2CCCN2C(=O)[C@H](CCc2ccc(C(F)(F)F)c(Cl)c2)NC(=O)CN(C)C(=O)[C@H](CC2CCCCC2)N(C)C(=O)[C@@H]2CCN2C(=O)[C@H](C)N(C)C1=O [Compound 745] ([NMeL][AllylGly][NMeA][Aze][NMeCha][Sar][hPhe(3-Cl-4-CF3)]P[Ac5c][NMeV][NMeD]-Piperidide; lactam N-11)
IC50 [1]: 29 nM
IC50 [2]: > 500 nM

From US20240148821A1, “PHARMACEUTICAL USE OF CYCLIC PEPTIDE COMPOUND” (CHUGAI SEIYAKU KABUSHIKI KAISHA, priority 2021, published 2024)
